Measured values: patent US12686668B2, “Leukotriene synthesis inhibitors” (Naegis Pharmaceuticals Inc., priority 2019, dated 2026)
Like-named read-outs stand apart in the source and are kept apart here. Blank lines part the entries; values can stand above or below the molecule they belong to.

Legend:
[1] = tested on: LTC4 production in MC/9 cells; assay: MC/9 HPLC assay, inhibition of LTC4 production; assay type: cell-based; conditions: Mus musculus; for inhibition at 3 µM: MC9, 3 μM, A23187 stimulated
How it was run: (§1)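 MC/9 cells (3×10^6 in HBSS) pre-incubated 30 min with compound, then stimulated 20 min at room temperature with 1 μM A23187. After methanol quench and C18 solid-phase extraction, LTB4 and LTC4 quantified by HPLC against reference standards; inhibition relative to control samples.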

[2] = tested on: LTB4 production in MC/9 cells; assay: MC/9 HPLC assay, inhibition of LTB4 production; assay type: cell-based; conditions: Mus musculus
How it was run: as §1

[3] = tested on: LTB4 production in porcine or human whole blood; assay: Whole blood HPLC assay, inhibition of LTB4 production; assay type: cell-based; conditions: 5 point curve, porcine or human whole blood (not specified)
How it was run: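 Porcine or human whole blood was pre-incubated 30 min with compound, then stimulated 20 min at room temperature with 20 μM A23187 (porcine blood also received 20 μM arachidonic acid). Plasma LTB4 was extracted on C18 and quantified by HPLC against reference standards. IC50 from a 5-point curve, with inhibition relative to controls.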

AA-induced ear edema = assay: Arachidonic acid (AA) induced mouse ear edema model; assay type: in vivo, CD-1 mice; conditions: 4 hrs and 1 hr before AA 2 mg/ear, mice; for % Inhibition AA-Induced ear edema (0.3 mg/ear): topical 0.3 mg/ear; for % Inhibition AA-Induced ear edema (1 mg/ear): topical 1 mg/ear
Experimental: One group serves as a control and receives 20 μL of vehicle applied to the pinna of each ear (10 μL to the inside and 10 μL to the outside of the pinna). One or more additional groups serve as test groups. The test compound was applied to the pinna of one ear of the mouse in a 20 μL volume (10 μL to the inside and 10 μL to the outside of the pinna). Test compound or control vehicle (acetone/1% DMSO) was applied topically to the right ear 4 and 1 hour before the application of 2 mg/ear AA as a stimulus to both the inner and outer surfaces of CD-1 mice. The left ears received vehicle (acetone/1% DMSO) alone. The animal was lightly anesthetized again using isofluorane to enable application of the stimulus. For the control group, arachidonic acid (2 mg/ear) was applied as the stimulus to the pinna of one ear only, in a total volume of 20 μL of acetone (10 μL applied to the inside and 10 μL to the outside of the pinna). The other ear received 20 μL of acetone. This served to determine the increase in ear weight due to arachidonic acid in the absence of test compounds. For the test groups, arachidonic acid (2 mg/ear) was applied as the stimulus to the pinna of each ear, in a total volume of 20 μL of acetone (10 μL applied to the inside and 10 μL to the outside of the pinna). The animal was allowed to recover after application of the stimulus in each case. After 60 minutes the animal was euthanized and a standard biopsy sample was taken from each ear using a 6 mm skin biopsy punch (Acuderm). Ear edema was determined by the increase in weight of the tissue due to accumulation of fluid as a result of plasma extravasation. The ears were weighed separately using a balance suitable to record 0.1 mg. For the control group, the difference in ear weights was determined by subtracting the weight of the unstimulated ear from the stimulated ear, and this was a measure of the increase in ear weight due to edema. The percentage increase in ear weight was determined by dividing the increase in stimulated ear weight by the unstimulated ear weight and multiplying by 100. For the test groups, the difference in ear weights was determined by subtracting the weight of the untreated ear from the weight of the ear treated with test compound. The percent inhibition of the increase in ear weight for ears treated with the test compound was estimated by first subtracting the mean ear weight of the untreated controls from each tissue to determine the increase in tissue weight due to application of the arachidonic acid. The percent inhibition=1−(test drug stimulated ear (mg)/control stimulated ear (mg))×100. In Table 5, the data from inhibition of AA-induced ear edema in mice by topical application of compounds is provided. Compounds (0.3 or 1 mg/ear) were applied topically to the ear 4 hrs and 1 hr prior to application of arachidonic acid (AA; 2 mg/ear).

[4] = MC9, Table 2 column 3, no concentration in head (1 μM according to b732), read-out: % Inhibition LTC4
[5] = MC9, Table 2 column 4, no concentration in head (1 μM according to b732), read-out: % Inhibition LTB4

- IC50 [3]: 100 to 1000 nM
Structure (SMILES): CCC(O)(CCc1ccc(Oc2nc3c(SC)cccc3s2)c(OC)c1)C(F)(F)F (centres unmarked) [Compound 104, 1-{3-methoxy-4-[(4-methylsulfanyl-1,3-benzothiazol-2-yl)oxy]phenyl}-3-(trifluoromethyl)pentan-3-ol]
- inhibition at 1 µM ([1]; MC9, 1 μM, read-out: % inhibition LTC4 (1 μM)): 90%
- inhibition at 3 µM [1]: > 90%
- inhibition at 1 µM [1, 4]: > 90%
- inhibition at 1 µM ([2]; MC9, 1 μM, read-out: % inhibition LTB4 (1 μM)): 90%
- inhibition at 1 µM [2, 5]: > 90%
- % Inhibition AA-Induced ear edema (0.3 mg/ear) (AA-induced ear edema): 30-50%
- % Inhibition AA-Induced ear edema (1 mg/ear) (AA-induced ear edema): 50-70%

- IC50 [3]: 100 to 1000 nM
Structure (SMILES): CC(O)(CCc1ccc(OCc2ccc3ccccc3n2)cc1)C(F)(F)F (centres unmarked) [Compound 183, 1,1,1-trifluoro-2-methyl-4-[4-(quinolin-2-ylmethoxy)phenyl]butan-2-ol]
- inhibition at 3 µM [1]: > 90%
- inhibition at 1 µM [1, 4]: > 90%
- inhibition at 1 µM [2, 5]: > 90%
- % Inhibition AA-Induced ear edema (0.3 mg/ear) (AA-induced ear edema): 30-50%
- % Inhibition AA-Induced ear edema (1 mg/ear) (AA-induced ear edema): >90%
